Measurements reported in PubChem BioAssay AID2202554 (NIEHS Division of Translational Toxicology (DTT)).
Results filed as inconclusive are left out. Activity calls are given as the source filed them. No rule for the calls is given here.

Tested on: S. typhimurium/E. coli reverse mutation, colony counts
Assay: Bacterial reverse mutation test (aka Ames test) summary data;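 also: His-minus Salmonella and trp-minus E. coli WP2 uvrA pKM101 with or without liver S9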
Excerpt: The Ames test uses bacteria cultures to determine whether a substance causes mutations. Because there is a significant overlap between substances that are mutagens and those that are carcinogens, a quick and inexpensive mutagenicity test is useful as an initial screening for possible carcinogens.
The Ames test relies on specific strains of S. typhimurium, namely: TA97, TA98, TA100, TA102, TA104, TA1535, TA1537, and TA1538. In addition to the S. typhimurium strains, the test may also use the E. coli strain WP2 uvrA pKM101.
Each of the bacterial strains has a mutation that prevents it from making an amino acid (a protein building block) required for normal cell growth. The S. typhimurium strains are unable to manufacture histidine; the E. coli strain cannot manufacture tryptophan. The tester strains will not be able to grow without amino acid supplementation, unless the mutated gene is changed back to the correct DNA sequence (reversion mutation). Being exposed to a mutagenic chemical increases the chance that the mutant gene will be restored to the correct sequence, which allows the bacteria to grow and form colonies. Each substance under study is tested in a variety of bacterial strains with different types of altered DNA sequences in order to provide a comprehensive assessment of the mutagenic potential of the substance.
Some non-mutagenic substances are converted to mutagenic substances when metabolized by the liver; in contrast, some substances that are mutagenic in their natural state are converted to non-mutagens by the liver. All substances are tested in their natural state, as well as in the presence of liver enzymes that can produce this metabolic conversion of the test substance. Extracts of rat, hamster, or mouse liver enzymes (S9 mix) are used for this purpose.
D. Preparing the Cultures
Multiple sets of cultures are prepared using a range of doses and different amounts of liver enzymes for each bacterial strain. Each culture is prepared in a test tube containing a suspension of one bacterial strain and either an S9 mix or plain buffer solution. Then the test substance is added. Negative control cultures are established using the same ingredients, but without the test substance. Positive control cultures are established using known mutagens active in particular bacterial strains and metabolic conditions (for example, with or without S9). Once prepared, each culture is incubated for 20 minutes at 37° C. Agar is then added to the cultures, and the contents of each tube are poured onto the surface of a Petri dish that was prepared with standard bacterial culture medium. The plates are then incubated, usually for two days.
Depending on the substance to be tested, the exposure and incubation processes may be modified. These variations include:
- Elimination of the 20-minute incubation period in a test tube prior to plating (this method is referred to as the standard plate incorporation method)
- Enzymatic reduction of azo and diazo substances (this process occurs in the intestine or liver of animals) using a chemical called flavin mononucleotide (FMN) or intestinal bacterial preparations from rats
- Testing in sealed chambers such as desiccators for volatile and gaseous chemicals.
To validate the test, a trained investigator compares the number of colonies on the chemical-treated plates to the number of colonies on the negative control plates. If the substance under test is mutagenic, the chemical-treated plates will have a much greater number of colonies than the negative control plates.
- A positive response is a reproducible, dose-related increase in mutant colonies in any single strain, with or without the addition of S9 metabolic enzymes. While there is no minimum percentage of increase required for a result to be considered positive, a twofold increase in mutant colonies in a treated plate is usually considered to be a positive (mutagenic) response.
[…]

For `CCCCCCCCOc1ccc(C(=O)O)cc1`, which outcome is on record?
The outcome was “inactive; negative”.

For `O=C1NC(=O)C(c2ccccc2)(c2ccccc2)N1`, which outcome is on record?
The outcome was “inactive; negative”.

How did the outcome turn out when `Cc1cc(Br)ccc1NC(=O)CCl` was run?
The outcome was “active; positive”.

`Nc1ccc(-c2ccc(N)c(Cl)c2)cc1Cl` was tested. Which outcome did it give?
Its outcome is “active; positive”.

How did the outcome turn out when `COc1ccc(N)cc1N` was run?
Its outcome is “active; positive”.

How did the outcome turn out when `CCOC(C=C(C)CCC=C(C)C)OCC` was run?
Its outcome is “active; positive”.

`C=CCCCCCC` was tested. Which outcome did it give?
Its outcome is “inactive; negative”.

For `O=C(OC1CCCCC1)c1ccccc1C(=O)OC1CCCCC1`, which outcome is on record?
The outcome was “inactive; negative”.

How did the outcome turn out when `CN1C(CSCC(F)(F)F)Nc2cc(Cl)c(S(N)(=O)=O)cc2S1(=O)=O` (configuration not stated) was run?
The outcome was “inactive; negative”.

With `O=[N+]([O-])c1c(Cl)cc(Cl)cc1Cl` as the compound, how does the outcome read?
Its outcome is “inactive; negative”.

`Cc1cc([N+](=O)[O-])ccc1N` was tested. Which outcome did it give?
The outcome was “active; positive”.

Which outcome does the source give for `O=[N+]([O-])c1ccc(Nc2ccc(O)cc2)c([N+](=O)[O-])c1` here?
Its outcome is “active; positive”.

`Nc1n[nH]c(N)n1` was tested. Which outcome did it give?
Its outcome is “inactive; negative”.

`CCCCCCCCCCCCCl` was tested. Which outcome did it give?
The outcome was “inactive; negative”.

Which outcome does the source give for `Cc1c(O)c(Br)c(Br)c(Br)c1Br` here?
Its outcome is “inactive; negative”.

With `OCCC(F)(F)C(F)(F)C(F)(F)C(F)(F)C(F)(F)C(F)(F)C(F)(F)C(F)(F)C(F)(F)C(F)(F)F` as the compound, how does the outcome read?
The outcome was “inactive; negative”.

For `COc1c(Cl)c(Cl)c(Cl)c(Cl)c1Cl`, which outcome is on record?
The outcome was “active; positive”.

How did the outcome turn out when `CCCCCCCCCCCCCCCCC1CO1` (configuration not stated) was run?
The outcome was “inactive; negative”.

Which outcome does the source give for `Cc1cccc(N)c1C` here?
Its outcome is “active; positive”.

With `CN(C)C(=S)SSC(=S)N(C)C` as the compound, how does the outcome read?
The outcome was “active; positive”.

For `O=C1NC(=O)c2cc([N+](=O)[O-])ccc21`, which outcome is on record?
Its outcome is “active; positive”.

`CC(C)OC(=O)Cc1ccccc1` was tested. Which outcome did it give?
Its outcome is “inactive; negative”.

For `CC(C)OCC1CO1` (configuration not stated), which outcome is on record?
The outcome was “active; positive”.

How did the outcome turn out when `CCCCC(CC)COC(=O)c1ccccc1C(=O)OCC(CC)CCCC` (configuration not stated) was run?
The outcome was “inactive; negative”.

For `OCC(CO)(CCBr)CCBr`, which outcome is on record?
The outcome was “active; positive”.

`O=C1CCO1` was tested. Which outcome did it give?
The outcome was “active; positive”.

How did the outcome turn out when `BrC/C=C/CBr` was run?
The outcome was “active; positive”.

Which outcome does the source give for `O=P1(N(CCCl)CCCl)NCCCO1` (configuration not stated) here?
Its outcome is “active; positive”.

How did the outcome turn out when `CC(=O)CC(=O)N(C)C` was run?
Its outcome is “inactive; negative”.

With `CC(C)(c1cc(Br)c(O)c(Br)c1)c1cc(Br)c(O)c(Br)c1` as the compound, how does the outcome read?
The outcome was “inactive; negative”.

Which outcome does the source give for `Clc1ccc(Cl)cc1` here?
The outcome was “inactive; negative”.

Which outcome does the source give for `CC(C)=CCC1CCCC1=O` (configuration not stated) here?
Its outcome is “inactive; negative”.

Which outcome does the source give for `CCNc1ccc([N+](=O)[O-])cc1C` here?
The outcome was “active; positive”.

For `Cc1ccc(N)cc1N`, which outcome is on record?
The outcome was “active; positive”.

How did the outcome turn out when `CN(C)CCCCl` was run?
Its outcome is “active; positive”.

Which outcome does the source give for `O=[N+]([O-])c1ccc(NCCO)c(OCCO)c1` here?
Its outcome is “active; positive”.

`CC(C)(C)OOC(C)(C)CCC(C)(C)OOC(C)(C)C` was tested. Which outcome did it give?
Its outcome is “inactive; negative”.

`CC(=O)Nc1ccc(N)cc1` was tested. Which outcome did it give?
Its outcome is “active; positive”.

Which outcome does the source give for `CCOc1ccc(N)cc1` here?
Its outcome is “active; positive”.

How did the outcome turn out when `Sc1ccccc1` was run?
Its outcome is “inactive; negative”.

Which outcome does the source give for `Cl[C@@H]1C2(Cl)C3C4[C@@H]5O[C@@H]5[C@H]5C3[C@@](Cl)(C2(Cl)Cl)[C@]1(Cl)[C@@H]45` (some centres not stated) here?
Its outcome is “active; positive”.

How did the outcome turn out when `OCC(Cl)Cl` was run?
The outcome was “active; weakly positive”.

For `CC(=O)CC(=O)Nc1ccccc1`, which outcome is on record?
Its outcome is “inactive; negative”.

How did the outcome turn out when `CC1CC(OC(=O)c2ccccc2O)CC(C)(C)C1` (configuration not stated) was run?
Its outcome is “inactive; negative”.

With `Cc1ccc(O)c(N)c1` as the compound, how does the outcome read?
The outcome was “active; positive”.

`CN(C)c1ccc(N)cc1` was tested. Which outcome did it give?
Its outcome is “active; positive”.

How did the outcome turn out when `CNC=O` was run?
The outcome was “inactive; negative”.

For `C=CC(=O)OCCN(C)C`, which outcome is on record?
The outcome was “inactive; negative”.

`Nc1nc(N)c2nc(-c3ccccc3)c(N)nc2n1` was tested. Which outcome did it give?
Its outcome is “inactive; negative”.

Which outcome does the source give for `CC[C@]12CCCN3CCc4c(n(c5ccccc45)[C@@](O)(C(=O)OC)C1)[C@@H]32` here?
Its outcome is “inactive; negative”.

How did the outcome turn out when `C=C(C)C(=O)OCCC` was run?
Its outcome is “inactive; negative”.

For `CCCl`, which outcome is on record?
The outcome was “active; positive”.

For `OCC(CBr)(CBr)CBr`, which outcome is on record?
The outcome was “active; positive”.

With `Cc1c(O)cccc1O` as the compound, how does the outcome read?
The outcome was “inactive; negative”.

How did the outcome turn out when `Nc1ccccc1Cl` was run?
The outcome was “inactive; negative”.

`Nc1ccc(Cc2ccc(N)cc2)cc1` was tested. Which outcome did it give?
Its outcome is “active; positive”.

`O=c1oc2c(O)c(O)cc3c(=O)oc4c(O)c(O)cc1c4c23` was tested. Which outcome did it give?
Its outcome is “inactive; negative”.

`CCOc1ccccc1C(N)=O` was tested. Which outcome did it give?
The outcome was “inactive; negative”.

Which outcome does the source give for `CC(CCl)OP(=O)(OC(C)CCl)OC(C)CCl` (configuration not stated) here?
Its outcome is “inactive; negative”.

For `N#CC(O)c1ccccc1` (configuration not stated), which outcome is on record?
The outcome was “inactive; negative”.

`Nc1cc([N+](=O)[O-])cc(S(=O)(=O)O)c1O` was tested. Which outcome did it give?
Its outcome is “inactive; negative”.

`CC(C)CO` was tested. Which outcome did it give?
Its outcome is “inactive; negative”.

With `c1ccc2[nH]cnc2c1` as the compound, how does the outcome read?
The outcome was “inactive; negative”.

`CCCCC(CC)COCCC#N` (configuration not stated) was tested. Which outcome did it give?
Its outcome is “inactive; negative”.

`O=C(O)c1cc(O)c2c(c1)[C@@H]([C@H]1c3cc(C(=O)O)cc(O)c3C(=O)c3c(O[C@@H]4O[C@H](CO)[C@@H](O)[C@H](O)[C@H]4O)cccc31)c1cccc(O[C@@H]3O[C@H](CO)[C@@H](O)[C@H](O)[C@H]3O)c1C2=O` was tested. Which outcome did it give?
Its outcome is “inactive; negative”.

For `Cc1cc(-c2ccc(N=Nc3c(S(=O)(=O)O)cc4cc(S(=O)(=O)O)cc(O)c4c3O)c(C)c2)ccc1N=Nc1c(S(=O)(=O)O)cc2cc(S(=O)(=O)O)cc(O)c2c1O`, which outcome is on record?
The outcome was “inactive; negative”.

Which outcome does the source give for `Oc1c(Cl)cccc1Cl` here?
The outcome was “inactive; negative”.

For `O=CNc1ccccc1`, which outcome is on record?
Its outcome is “inactive; negative”.

With `O=S(O)c1ccc(Cl)cc1` as the compound, how does the outcome read?
Its outcome is “inactive; negative”.

`CCC(CO)(CO)[N+](=O)[O-]` was tested. Which outcome did it give?
The outcome was “inactive; negative”.

How did the outcome turn out when `NCCCCCCN` was run?
The outcome was “inactive; negative”.

How did the outcome turn out when `Cc1c(N)cccc1Cl` was run?
Its outcome is “inactive; negative”.

With `CCCCOP(=O)(OCCCC)Oc1ccccc1` as the compound, how does the outcome read?
Its outcome is “inactive; negative”.

Which outcome does the source give for `Nc1c(S(=O)(=O)O)cc(Nc2cccc(S(=O)(=O)CCOS(=O)(=O)O)c2)c2c1C(=O)c1ccccc1C2=O` here?
Its outcome is “active; positive”.

With `O=C1C=CCCC1` as the compound, how does the outcome read?
The outcome was “inactive; negative”.

`CCOC(=O)C1=C[C@]2(CC)CCCN3CCc4c(n1c1ccccc41)[C@@H]32` was tested. Which outcome did it give?
The outcome was “inactive; negative”.

`O=C1OC(=O)c2cc([N+](=O)[O-])ccc21` was tested. Which outcome did it give?
The outcome was “active; positive”.

How did the outcome turn out when `CC(=O)C(C)=O` was run?
The outcome was “active; positive”.

Which outcome does the source give for `CN(C)CCCN1c2ccccc2Sc2ccc(Cl)cc21` here?
The outcome was “inactive; negative”.

Which outcome does the source give for `C=CCOC(=O)COCCC(C)C` here?
Its outcome is “inactive; negative”.

Which outcome does the source give for `C=C(C#N)C(=O)OCC` here?
Its outcome is “inactive; negative”.

Which outcome does the source give for `Nc1cccc2c(N)cccc12` here?
Its outcome is “active; positive”.

`OCCN1CN(CCO)CN(CCO)C1` was tested. Which outcome did it give?
Its outcome is “active; positive”.

With `ClCc1ccccn1` as the compound, how does the outcome read?
Its outcome is “active; positive”.

For `Cc1c(Br)c(Br)c(Br)c(Br)c1Br`, which outcome is on record?
The outcome was “inactive; negative”.

With `CC=O` as the compound, how does the outcome read?
The outcome was “inactive; negative”.

Which outcome does the source give for `CCc1ccc(N)cc1` here?
The outcome was “inactive; negative”.

`CCCN(CCC)C(=O)SCC` was tested. Which outcome did it give?
Its outcome is “inactive; negative”.

With `C1CC2OC2CC1C1CO1` (configuration not stated) as the compound, how does the outcome read?
The outcome was “active; positive”.

Which outcome does the source give for `CC(=O)NBr` here?
Its outcome is “inactive; negative”.

With `CN(C)C(=O)Nc1ccc(Cl)cc1` as the compound, how does the outcome read?
Its outcome is “inactive; negative”.

With `NC(=O)c1ccccc1O` as the compound, how does the outcome read?
The outcome was “inactive; negative”.
